Consider 15 compounds from US20090137572A1, “2-substituted-4-heteroaryl-pyrimidines useful for the treatment of proliferative disorders” (priority 2004, published 2009).

Common to all, as to assay type: biochemical
The target of assay [1] is CDK2-cycline E (Homo sapiens, UniProt P24941). In words: Kinase assay (radioactive phosphate incorporation), CDK2-cyclin E. The following applies: read-out: Kinase Inhibition pIC50 CDK2-cycline E (converted). As to the method: (§1) Kinase assays. The compounds of the invention above were investigated for their ability to inhibit the enzymatic activity of various protein kinases (Table 2). This was achieved by measurement of incorporation of radioactive phosphate from ATP into appropriate polypeptide substrates. Recombinant protein kinases and kinase complexes were produced or obtained commercially. Assays were performed using 96-well plates and appropriate assay buffers (typically 25 mM β-glycerophosphate, 20 mM MOPS, 5 mM EGTA, 1 mM DTT, 1 mM […], pH 7.4), into which were added 2-4 μg of active enzyme with appropriate substrates. The reactions were initiated by addition of Mg/ATP mix (15 mM MgCl2+100 μM ATP with 30-50 kBq per well of [γ-^32P]-ATP) and mixtures incubated as required at 30° C. Reactions were stopped on ice, followed by filtration through p81 filterplates or GF/C filterplates (Whatman Polyfiltronics, Kent, UK). After washing 3 times with 75 mM aq orthophosphoric acid, plates were dried, scintillant added and incorporated radioactivity measured in a scintillation counter (TopCount, Packard Instruments, Pangbourne, Berks, UK). Compounds for kinase assay were made up as 10 mM stocks in DMSO and diluted into 10% DMSO in assay buffer.

The target of assay [2] is CDK7/cyclin H (Homo sapiens, UniProt P50613). In words: CDK 7 assay (CTD peptide substrate). The following applies: read-out: Kinase Inhibition pIC50 CDK7-cyclin H (converted). The protocol: as §1
(§2) CDK 7 and 9 assays. CTD peptide substrate (biotinyl-Abx-(Tyr-Ser-Pro-Thr-Ser-Pro-Ser)4-NH2; 1-2 mg/mL) and recombinant human CDK7/cyclin H, CDK9/cyclin T1, or CDK9/cyclin K (0.5-2 μg) were incubated for 45 min at 30° C. in the presence of varying amounts of test compound in 20 mM MOPS pH 7.2, 25 mM β-glycerophosphate, 5 mM EGTA, 1 mM DTT, 1 mM sodium vanadate, 15 mM MgCl2, and 100 μM ATP (containing a trace amount of ^32PγATP) in a total volume of 25 μL in a 96-well microtiter plate. The reaction was stopped by placing the plate on ice for 2 min. Avidin (50 μg) was added to each well, and the plate was incubated at room temp for 30 min. The samples were transferred to a 96-well P81 filter plate, and washed (4×200 μL per well) with 75 mM phosphoric acid. Microscint 40 scintillation liquid (50 μL) was added to each well, and the amount of ^32P incorporation for each sample was measured using a Packard Topcount microplate scintillation counter.

For assay [3], the target named is CDK9/cyclin T1 (Homo sapiens, UniProt P50750). Briefly: CDK 9 assay (CTD peptide substrate). Conditions: read-out: Kinase Inhibition pIC50 CDK9-cyclin T1 (converted). As to the method: as §1, §2
For assay [4], the target named is T1, Aurora A kinase (Homo sapiens, UniProt O14965).
T1 construct: purchased
T1 sequence (O14965 1-403): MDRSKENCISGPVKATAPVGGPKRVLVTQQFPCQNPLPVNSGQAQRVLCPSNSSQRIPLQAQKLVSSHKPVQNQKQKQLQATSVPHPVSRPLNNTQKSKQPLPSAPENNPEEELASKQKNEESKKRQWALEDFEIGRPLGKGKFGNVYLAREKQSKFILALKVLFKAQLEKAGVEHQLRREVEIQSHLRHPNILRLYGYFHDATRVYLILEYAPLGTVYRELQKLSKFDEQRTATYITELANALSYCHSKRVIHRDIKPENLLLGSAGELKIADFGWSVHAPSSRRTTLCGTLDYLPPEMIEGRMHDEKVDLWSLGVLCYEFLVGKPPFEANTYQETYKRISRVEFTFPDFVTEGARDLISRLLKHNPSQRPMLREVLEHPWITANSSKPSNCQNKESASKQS
Briefly: Aurora-A (human) kinase assay (Kemptide substrate). Conditions: pIC50 is -log(IC50, M); 15 μM ATP; read-out: Kinase Inhibition pIC50 Aurora A kinase (converted). As to the method: Aurora-A (human) kinase assay. This was achieved by measurement of incorporation of radioactive phosphate from ATP into Kemptide substrate (LRRASLG), upon phosphorylation by commercially obtained aurora-A kinase. Assays were performed using 96-well plates and appropriate assay buffers (8 mM MOPS, 0.2 mM EDTA, pH 7.0), into which were added 5-10 ng of active enzyme with 200 μM substrate (Kemptide). The reactions were initiated by addition of Mg/ATP mix (10 mM MgAcetate+15 μM ATP with 30-50 kBq per well of [γ-^33P]-ATP) and mixtures incubated for 40 min at room temperature. Reactions were stopped by addition of 3% phosphoric acid, followed by filtration through p81 filterplates (Whatman Polyfiltronics, Kent, UK). After washing 5 times with 75 mM aq orthophosphoric acid and once in methanol, plates were dried, scintillant added and incorporated radioactivity measured in a scintillation counter (TopCount, Packard Instruments, Pangbourne, Berks, UK). Compounds for kinase assay were made up as 10 mM stocks in DMSO and diluted into 10% DMSO in assay buffer.

Sequence of CDK9/cyclin T1 (P50750 whole entry): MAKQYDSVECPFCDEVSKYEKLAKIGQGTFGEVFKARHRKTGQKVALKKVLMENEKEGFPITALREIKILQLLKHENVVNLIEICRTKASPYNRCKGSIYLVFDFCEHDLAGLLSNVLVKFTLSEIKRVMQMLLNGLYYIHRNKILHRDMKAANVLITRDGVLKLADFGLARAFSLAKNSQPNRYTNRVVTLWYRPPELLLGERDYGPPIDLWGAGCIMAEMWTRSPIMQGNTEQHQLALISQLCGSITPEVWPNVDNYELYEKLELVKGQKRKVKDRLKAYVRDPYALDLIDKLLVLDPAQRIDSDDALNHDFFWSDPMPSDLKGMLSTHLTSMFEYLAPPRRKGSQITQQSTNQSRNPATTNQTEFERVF
Sequence of CDK9/cyclin T1 (O60563 whole entry partner): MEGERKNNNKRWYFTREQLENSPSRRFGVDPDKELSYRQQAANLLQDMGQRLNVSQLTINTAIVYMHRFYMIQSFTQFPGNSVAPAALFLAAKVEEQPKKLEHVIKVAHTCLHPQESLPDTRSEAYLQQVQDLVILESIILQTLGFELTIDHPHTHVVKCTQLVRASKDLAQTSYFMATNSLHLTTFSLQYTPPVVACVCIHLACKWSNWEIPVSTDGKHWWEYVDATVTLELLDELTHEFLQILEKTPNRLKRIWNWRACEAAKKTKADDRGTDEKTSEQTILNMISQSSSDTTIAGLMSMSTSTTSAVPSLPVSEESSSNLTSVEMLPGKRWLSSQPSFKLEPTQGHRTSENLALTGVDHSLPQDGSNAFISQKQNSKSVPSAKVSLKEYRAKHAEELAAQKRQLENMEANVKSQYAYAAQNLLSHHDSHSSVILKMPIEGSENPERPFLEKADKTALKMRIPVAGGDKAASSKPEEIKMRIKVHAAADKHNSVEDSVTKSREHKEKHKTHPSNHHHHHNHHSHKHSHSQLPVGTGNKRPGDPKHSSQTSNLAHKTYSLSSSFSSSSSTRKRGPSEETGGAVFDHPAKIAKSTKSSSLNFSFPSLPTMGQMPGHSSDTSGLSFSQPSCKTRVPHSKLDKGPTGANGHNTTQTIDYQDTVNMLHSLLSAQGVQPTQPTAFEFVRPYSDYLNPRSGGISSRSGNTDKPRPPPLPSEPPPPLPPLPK
Sequence of CDK7/cyclin H (P50613 whole entry): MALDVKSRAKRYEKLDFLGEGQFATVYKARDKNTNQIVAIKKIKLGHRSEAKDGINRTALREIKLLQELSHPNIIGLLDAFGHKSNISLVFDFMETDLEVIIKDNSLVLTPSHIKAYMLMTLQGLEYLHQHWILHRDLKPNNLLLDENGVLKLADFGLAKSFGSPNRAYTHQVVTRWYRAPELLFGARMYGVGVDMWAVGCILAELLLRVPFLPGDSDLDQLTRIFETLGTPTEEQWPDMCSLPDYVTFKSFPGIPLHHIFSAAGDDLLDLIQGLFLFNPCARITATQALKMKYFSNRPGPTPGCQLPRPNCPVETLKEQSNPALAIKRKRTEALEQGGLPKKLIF
Sequence of CDK7/cyclin H (P51946 whole entry partner): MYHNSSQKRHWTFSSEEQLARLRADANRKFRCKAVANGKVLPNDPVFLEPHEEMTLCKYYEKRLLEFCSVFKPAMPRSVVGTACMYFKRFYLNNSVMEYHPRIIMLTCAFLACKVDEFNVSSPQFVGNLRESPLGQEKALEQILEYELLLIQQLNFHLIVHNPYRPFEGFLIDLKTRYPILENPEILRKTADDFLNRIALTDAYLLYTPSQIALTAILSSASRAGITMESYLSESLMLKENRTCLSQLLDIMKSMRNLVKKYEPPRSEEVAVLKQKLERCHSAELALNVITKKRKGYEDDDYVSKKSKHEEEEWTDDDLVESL

On to `COc1cc(Nc2nccc(-c3sc(CO)nc3C)n2)ccc1N1CCCCC1` [Compound 216, {5-[2-(3-Methoxy-4-piperidin-1-yl-phenylamino)-pyrimidin-4-yl]-4-methyl-thiazol-2-yl}-methanol], for which the IC50 was 1580 nM in assay [1], 1580 nM in assay [2], 631 nM in assay [3] and 63.1 nM in assay [4].
With `CCN(C)c1nc(C)c(-c2ccnc(Nc3ccc(N4CCOCC4)cc3)n2)s1` [Compound 120, {4-[2-(Ethyl-methyl-amino)-4-methyl-thiazol-5-yl]-pyrimidin-2-yl}-(4-morpholin-4-yl-phenyl)-amine], the IC50 is 794 nM in assay [1], 3160 nM in assay [2], 2000 nM in assay [3] and 31.6 nM in assay [4].
For `Cc1nc(N)sc1-c1ccnc(Nc2ccc(N3CCCCC3)cc2)n1` [Compound 195, [4-(2-Amino-4-methyl-thiazol-5-yl)-pyrimidin-2-yl]-(4-piperidin-1-yl-phenyl)-amine] the same measures were 794 nM, 1580 nM, 398 nM and 39.8 nM.
Consider `Cc1nc(N)sc1-c1ccnc(Nc2ccc(N3CCOCC3)c(C(N)=O)c2)n1` [Compound 211, 5-[4-(2-Amino-4-methyl-thiazol-5-yl)-pyrimidin-2-ylamino]-2-morpholin-4-yl-benzamide], for which the IC50 in assay [1] is 2510 nM; in assay [2], 6310 nM; in assay [3], 2000 nM; in assay [4], 158 nM.
On to `Cc1nc(C)c(-c2ccnc(Nc3ccc(N4CCN(CC(=O)NC(C)C)CC4)cc3)n2)s1` [Compound 190, 2-(4-{4-[4-(2,4-Dimethyl-thiazol-5-yl)-pyrimidin-2-ylamino]-phenyl}-piperazin-1-yl)-N-isopropyl-acetamide], for which the IC50 was 1000 nM in assay [1], 7940 nM in assay [2], 2510 nM in assay [3] and 63.1 nM in assay [4].
On the same counts, the results for `Cc1nc(CO)sc1-c1ccnc(Nc2ccc(N3CCCCC3)cc2)n1` [Compound 197, {4-Methyl-5-[2-(4-piperidin-1-yl-phenylamino)-pyrimidin-4-yl]-thiazol-2-yl}-methanol] are 2510 nM, 7940 nM, 3160 nM and 100 nM.
In the case of `Cc1nc(CO)sc1-c1ccnc(Nc2ccc(N3CCOCC3)cc2)n1` [Compound 188, {4-Methyl-5-[2-(4-morpholin-4-yl-phenylamino)-pyrimidin-4-yl]-thiazol-2-yl}-methanol], the IC50 in assay [1] was 1580 nM; in assay [3], 3980 nM; in assay [4], 79.4 nM.
For `Cc1nc(C)c(-c2ccnc(Nc3ccc(N4CCN(Cc5ccccc5)CC4)cc3)n2)s1` [Compound 114, [4-(4-Benzyl-piperazin-1-yl)-phenyl]-[4-(2,4-dimethyl-thiazol-5-yl)-pyrimidin-2-yl]-amine], the IC50 was 1260 nM in assay [1], 126 nM in assay [2], 1580 nM in assay [3] and 316 nM in assay [4].
On to `COc1cc(Nc2nccc(-c3sc(C)nc3C)n2)ccc1N1CCOCC1` [Compound 173, [4-(2,4-Dimethyl-thiazol-5-yl)-pyrimidin-2-yl]-(3-methoxy-4-morpholin-4-yl-phenyl)-amine], for which the IC50 was 794 nM in assay [1], 3160 nM in assay [2], 3160 nM in assay [3] and 39.8 nM in assay [4].
On to `Cc1nc(C)c(-c2ccnc(Nc3ccc(N4CCN(C(=O)C5CC5)CC4)cc3)n2)s1` [Compound 213, Cyclopropyl-(4-{4-[4-(2,4-dimethyl-thiazol-5-yl)-pyrimidin-2-ylamino]-phenyl}-piperazin-1-yl)-methanone], for which the IC50 is 1580 nM in assay [1], 2510 nM in assay [3] and 39.8 nM in assay [4].
As for `CNc1nc(C)c(-c2ccnc(Nc3cccc(S(=O)(=O)Nc4cccc(OC)c4)c3)n2)s1` [Compound 32, N-(3-Methoxy-phenyl)-3-[4-(4-methyl-2-methylamino-thiazol-5-yl)-pyrimidin-2-ylamino]-benzenesulfonamide], the IC50 was 5010 nM in assay [2], 2510 nM in assay [3] and 12.6 nM in assay [4].
On to `CC(=O)N1CCN(c2ccc(Nc3nccc(-c4sc(N(C)Cc5ccccc5)nc4C)n3)cc2)CC1` [Compound 122, 1-[4-(4-{4-[2-(Benzyl-methyl-amino)-4-methyl-thiazol-5-yl]-pyrimidin-2-ylamino}-phenyl)-piperazin-1-yl]-ethanone], for which the IC50 in assay [1] is 2000 nM; in assay [2], 1580 nM; in assay [3], 1260 nM; in assay [4], 200 nM.
Regarding `Cc1cc(Nc2nccc(-c3sc(CO)nc3C)n2)ccc1N1CCOCC1` [Compound 217, {4-Methyl-5-[2-(3-methyl-4-morpholin-4-yl-phenylamino)-pyrimidin-4-yl]-thiazol-2-yl}-methanol], the IC50 was 1260 nM in assay [1], 7940 nM in assay [2], 3980 nM in assay [3] and 50.1 nM in assay [4].
For `COc1cc(Nc2nccc(-c3sc(N)nc3C)n2)ccc1N1CCOCC1` [Compound 182, [4-(2-Amino-4-methyl-thiazol-5-yl)-pyrimidin-2-yl]-(3-methoxy-4-morpholin-4-yl-phenyl)-amine] the same measures were 794 nM, 2510 nM, 1000 nM and 39.8 nM.
As for `CCOC(=O)N1CCN(c2ccc(Nc3nccc(-c4sc(C)nc4C)n3)cc2)CC1` [Compound 189, 4-{4-[4-(2,4-Dimethyl-thiazol-5-yl)-pyrimidin-2-ylamino]-phenyl}-piperazine-1-carboxylic acid ethyl ester], the IC50 in assay [1] is 2000 nM; in assay [3], 2000 nM; in assay [4], 100 nM.
